Reference: ChEMBL document CHEMBL1201862, “PubChem BioAssay data set” (2004)
Active and inactive are the calls of the source.

Experiments:
Caspase-6 = target: T1, Caspase-6 (Homo sapiens, UniProt P55212); assay: human caspase-6 inhibitors, dose response, biochemical, VEID-R110 fluorescence, cherry-pick (AID 720632)
T1 sequence (P55212 whole entry): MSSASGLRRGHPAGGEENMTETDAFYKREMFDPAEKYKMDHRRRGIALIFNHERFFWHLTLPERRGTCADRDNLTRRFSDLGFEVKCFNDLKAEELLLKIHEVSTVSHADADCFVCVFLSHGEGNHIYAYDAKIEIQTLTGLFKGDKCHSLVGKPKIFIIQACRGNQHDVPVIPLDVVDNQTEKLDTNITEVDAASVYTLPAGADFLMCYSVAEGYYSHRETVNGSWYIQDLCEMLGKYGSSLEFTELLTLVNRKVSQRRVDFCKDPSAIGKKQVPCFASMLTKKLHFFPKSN

[1] = target: Polyadenylate-binding protein 1 (Homo sapiens, UniProt P11940); assay: PABP poly(A) RNA binding inhibitors, primary screen, biochemical, fluorescence polarization, uHTS (AID 2014)
Chain of Polyadenylate-binding protein 1 (P11940 whole entry): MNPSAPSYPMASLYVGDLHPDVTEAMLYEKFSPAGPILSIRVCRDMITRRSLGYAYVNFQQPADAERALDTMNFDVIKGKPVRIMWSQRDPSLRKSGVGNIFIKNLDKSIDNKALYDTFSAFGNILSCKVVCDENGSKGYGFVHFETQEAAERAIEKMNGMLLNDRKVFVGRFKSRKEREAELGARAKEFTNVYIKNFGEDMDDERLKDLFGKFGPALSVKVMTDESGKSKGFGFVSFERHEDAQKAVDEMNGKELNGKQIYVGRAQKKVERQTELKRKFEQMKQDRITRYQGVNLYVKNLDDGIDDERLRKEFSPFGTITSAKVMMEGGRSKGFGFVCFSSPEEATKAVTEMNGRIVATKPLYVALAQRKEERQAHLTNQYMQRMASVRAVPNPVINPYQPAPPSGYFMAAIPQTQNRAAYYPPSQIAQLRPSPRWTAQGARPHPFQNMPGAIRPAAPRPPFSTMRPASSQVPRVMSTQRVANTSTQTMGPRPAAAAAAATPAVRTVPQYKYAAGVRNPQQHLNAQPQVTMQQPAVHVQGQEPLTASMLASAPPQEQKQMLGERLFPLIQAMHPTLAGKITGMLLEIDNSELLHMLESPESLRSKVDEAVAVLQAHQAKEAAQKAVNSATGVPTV

[2] = target: Induced myeloid leukemia cell differentiation protein Mcl-1 (Homo sapiens, UniProt Q07820); format: functional
[3] = target: T2, Alkaline phosphatase, tissue-nonspecific isozyme (Homo sapiens, UniProt P05186); assay: TNAP enzyme activators, dose response, selectivity assay for mouse IAP activator project, biochemical, TNAP isozyme, mouse IAP uHTS hits (AID 488880); format: functional
T2 sequence (P05186 whole entry): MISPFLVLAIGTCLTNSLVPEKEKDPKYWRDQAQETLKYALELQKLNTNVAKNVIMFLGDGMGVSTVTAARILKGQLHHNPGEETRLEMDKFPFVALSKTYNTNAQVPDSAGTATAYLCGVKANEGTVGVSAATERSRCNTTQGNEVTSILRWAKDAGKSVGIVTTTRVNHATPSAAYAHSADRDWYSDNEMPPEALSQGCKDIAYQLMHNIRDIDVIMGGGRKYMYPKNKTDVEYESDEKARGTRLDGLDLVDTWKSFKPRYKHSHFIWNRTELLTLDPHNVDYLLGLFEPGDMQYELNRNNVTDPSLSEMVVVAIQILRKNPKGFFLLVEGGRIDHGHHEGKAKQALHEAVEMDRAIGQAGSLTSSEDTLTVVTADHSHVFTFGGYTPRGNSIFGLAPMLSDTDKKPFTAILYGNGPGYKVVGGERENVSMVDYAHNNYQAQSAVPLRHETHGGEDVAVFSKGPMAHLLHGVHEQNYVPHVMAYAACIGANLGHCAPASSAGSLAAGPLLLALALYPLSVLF

[4] = target: Ras and Rab interactor 1/Tyrosine-protein kinase ABL1 (Homo sapiens, UniProt P00519+Q13671); format: functional;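 also: biochemical TR-FRET dose-response test measuring inhibition of binding between Rin1 and Abl proteins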
Chain of Ras and Rab interactor 1/Tyrosine-protein kinase ABL1 (P00519 whole entry): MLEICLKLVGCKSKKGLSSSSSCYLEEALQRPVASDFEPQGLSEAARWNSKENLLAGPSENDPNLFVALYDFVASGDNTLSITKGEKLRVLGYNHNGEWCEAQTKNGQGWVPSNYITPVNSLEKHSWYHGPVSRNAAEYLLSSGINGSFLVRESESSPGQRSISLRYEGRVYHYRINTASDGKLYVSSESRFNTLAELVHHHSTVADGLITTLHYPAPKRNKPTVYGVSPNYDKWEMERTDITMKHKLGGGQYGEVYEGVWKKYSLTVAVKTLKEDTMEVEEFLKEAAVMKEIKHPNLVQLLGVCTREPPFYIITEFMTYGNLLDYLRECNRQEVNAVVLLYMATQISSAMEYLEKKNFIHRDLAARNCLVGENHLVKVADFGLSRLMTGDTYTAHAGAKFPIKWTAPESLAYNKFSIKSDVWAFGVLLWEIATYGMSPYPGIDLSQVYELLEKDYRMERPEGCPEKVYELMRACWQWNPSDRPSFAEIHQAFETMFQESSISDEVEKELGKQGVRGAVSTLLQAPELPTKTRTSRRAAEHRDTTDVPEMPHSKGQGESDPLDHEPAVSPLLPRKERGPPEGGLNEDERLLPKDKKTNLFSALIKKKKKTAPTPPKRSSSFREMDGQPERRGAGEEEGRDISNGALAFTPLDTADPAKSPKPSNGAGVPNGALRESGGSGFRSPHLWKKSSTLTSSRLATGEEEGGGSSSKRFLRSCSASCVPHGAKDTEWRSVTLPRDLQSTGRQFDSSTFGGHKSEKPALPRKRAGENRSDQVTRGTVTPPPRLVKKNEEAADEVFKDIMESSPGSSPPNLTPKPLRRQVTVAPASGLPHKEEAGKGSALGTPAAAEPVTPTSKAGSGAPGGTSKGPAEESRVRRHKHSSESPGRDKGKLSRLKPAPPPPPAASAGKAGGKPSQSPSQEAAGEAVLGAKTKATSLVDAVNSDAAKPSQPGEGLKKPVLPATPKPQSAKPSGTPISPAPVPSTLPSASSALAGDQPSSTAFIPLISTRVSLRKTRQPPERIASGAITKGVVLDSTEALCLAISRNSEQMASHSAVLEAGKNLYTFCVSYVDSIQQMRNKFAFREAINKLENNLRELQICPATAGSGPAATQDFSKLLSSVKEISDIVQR
Chain of Ras and Rab interactor 1/Tyrosine-protein kinase ABL1 (Q13671 whole entry): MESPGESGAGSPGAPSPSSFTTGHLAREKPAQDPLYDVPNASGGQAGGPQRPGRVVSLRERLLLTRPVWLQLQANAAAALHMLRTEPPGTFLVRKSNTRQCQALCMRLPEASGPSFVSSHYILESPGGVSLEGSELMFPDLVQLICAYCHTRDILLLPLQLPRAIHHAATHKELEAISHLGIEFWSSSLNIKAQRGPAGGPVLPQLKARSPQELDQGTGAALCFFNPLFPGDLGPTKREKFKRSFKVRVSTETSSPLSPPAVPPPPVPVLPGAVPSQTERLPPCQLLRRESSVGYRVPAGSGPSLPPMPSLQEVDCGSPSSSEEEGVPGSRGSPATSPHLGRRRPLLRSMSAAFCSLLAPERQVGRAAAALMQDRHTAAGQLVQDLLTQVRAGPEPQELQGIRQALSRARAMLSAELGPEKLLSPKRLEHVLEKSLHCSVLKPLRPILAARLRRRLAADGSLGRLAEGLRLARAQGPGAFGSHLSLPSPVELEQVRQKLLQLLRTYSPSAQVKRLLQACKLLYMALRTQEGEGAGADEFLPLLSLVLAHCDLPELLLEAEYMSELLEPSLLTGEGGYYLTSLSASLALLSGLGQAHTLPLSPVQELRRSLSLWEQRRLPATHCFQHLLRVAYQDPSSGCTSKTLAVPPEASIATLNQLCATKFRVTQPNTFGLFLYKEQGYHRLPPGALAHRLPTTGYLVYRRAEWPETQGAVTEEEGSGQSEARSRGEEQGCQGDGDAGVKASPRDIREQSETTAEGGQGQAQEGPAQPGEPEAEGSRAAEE

Caspase-7 = Caspase-7 (Homo sapiens, UniProt P55210); assay: human caspase-7 inhibitors, dose response, selectivity assay for caspase-6 inhibitor project, biochemical, DEVD-R110 fluorescence, cherry-pick (AID 743295)
[5] = target: Intestinal-type alkaline phosphatase (Mus musculus, UniProt P24822); assay: mouse intestinal alkaline phosphatase activators, dose response, biochemical, luminescence, uHTS hits (AID 488783); format: functional
Chain of Intestinal-type alkaline phosphatase (Mus musculus, UniProt P24822) (P24822 whole entry): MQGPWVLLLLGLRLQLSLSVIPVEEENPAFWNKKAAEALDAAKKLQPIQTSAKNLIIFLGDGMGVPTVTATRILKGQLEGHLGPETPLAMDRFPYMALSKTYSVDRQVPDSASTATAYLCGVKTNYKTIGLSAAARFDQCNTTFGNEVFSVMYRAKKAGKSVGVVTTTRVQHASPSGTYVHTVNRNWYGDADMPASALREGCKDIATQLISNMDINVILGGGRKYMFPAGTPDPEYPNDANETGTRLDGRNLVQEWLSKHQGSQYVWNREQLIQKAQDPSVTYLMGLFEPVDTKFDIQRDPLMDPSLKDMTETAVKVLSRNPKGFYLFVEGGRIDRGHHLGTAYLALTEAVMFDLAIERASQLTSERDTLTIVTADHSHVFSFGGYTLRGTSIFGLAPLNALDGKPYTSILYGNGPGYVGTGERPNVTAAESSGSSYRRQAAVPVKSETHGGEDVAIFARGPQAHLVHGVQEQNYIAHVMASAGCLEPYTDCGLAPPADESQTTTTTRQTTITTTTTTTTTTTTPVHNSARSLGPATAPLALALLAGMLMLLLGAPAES

Albumin = Albumin (Bos taurus, UniProt P02769); assay: Counterscreen for inhibitors of T-cell receptor (TCR)-CD3 interaction: Fluorescence-based biochemical high throughput dose response assay to identify inhibitors of T-cell receptor (TCR)-CD3 interaction using a TAMRA-labeled BSA probe.; format: functional
Large T antigen = Large T antigen (Simian virus 40, UniProt P03070); format: functional, Betapolyomavirus macacae;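 also: Confirmatory-stage PubChem screen for compounds that inhibit SV40 T antigen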
[6] = target: Intestinal-type alkaline phosphatase (Homo sapiens, UniProt P09923); assay: activation of human intestinal alkaline phosphatase – biochemical, dose response (AID 488873); format: functional
[7] = target: Eukaryotic translation initiation factor 4H (Homo sapiens, UniProt Q15056); assay: human eIF4H binding inhibitors, primary screen, translation initiation inhibitor project, biochemical, uHTS, fluorescence polarization (AID 2012)
Cannabinoid receptor 2 [8] = target: T3, Cannabinoid receptor 2 (Homo sapiens, UniProt P34972); assay: SAR analysis of agonists of the Cannabinoid Receptor 2 using an Image-Based Assay. [Related pubchem assays (depositor defined):AID2013, AID2026]; format: functional
T3 sequence (P34972 whole entry): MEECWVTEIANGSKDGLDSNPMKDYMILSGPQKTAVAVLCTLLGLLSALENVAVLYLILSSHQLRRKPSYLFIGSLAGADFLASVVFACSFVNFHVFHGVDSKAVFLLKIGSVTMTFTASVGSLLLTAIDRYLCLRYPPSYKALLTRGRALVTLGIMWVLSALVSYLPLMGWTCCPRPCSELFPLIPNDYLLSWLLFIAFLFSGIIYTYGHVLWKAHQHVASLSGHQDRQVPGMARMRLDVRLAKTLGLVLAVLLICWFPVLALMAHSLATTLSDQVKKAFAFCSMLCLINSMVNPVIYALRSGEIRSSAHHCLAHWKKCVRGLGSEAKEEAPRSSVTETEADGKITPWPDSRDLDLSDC

[9] = target: T4, G-protein coupled receptor 55 (Homo sapiens, UniProt Q9Y2T6); assay: GPR55 antagonist potency of analogs, SAR follow-up, imaging, U2OS, beta-arrestin-GFP, LPI agonist, set 2 (AID 2820); format: functional
T4 sequence (Q9Y2T6 whole entry): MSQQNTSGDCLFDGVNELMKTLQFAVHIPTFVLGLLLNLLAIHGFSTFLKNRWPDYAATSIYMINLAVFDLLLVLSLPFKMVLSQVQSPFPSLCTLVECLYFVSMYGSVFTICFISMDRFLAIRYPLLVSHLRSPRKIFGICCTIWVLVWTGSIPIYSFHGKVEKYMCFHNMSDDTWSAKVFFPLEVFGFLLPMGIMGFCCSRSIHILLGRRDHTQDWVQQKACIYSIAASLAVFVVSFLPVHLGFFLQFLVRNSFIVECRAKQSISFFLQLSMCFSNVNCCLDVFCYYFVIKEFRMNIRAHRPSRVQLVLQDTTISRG

[10] = target: T5, G-protein coupled receptor 35 (Homo sapiens, UniProt Q9HC97); assay: SAR analysis of Agonists of the GPR35 Receptor using an Image-Based Assay - Set 2. [Related pubchem assays (depositor defined):AID2013, AID2026]; format: functional
T5 sequence (Q9HC97 whole entry): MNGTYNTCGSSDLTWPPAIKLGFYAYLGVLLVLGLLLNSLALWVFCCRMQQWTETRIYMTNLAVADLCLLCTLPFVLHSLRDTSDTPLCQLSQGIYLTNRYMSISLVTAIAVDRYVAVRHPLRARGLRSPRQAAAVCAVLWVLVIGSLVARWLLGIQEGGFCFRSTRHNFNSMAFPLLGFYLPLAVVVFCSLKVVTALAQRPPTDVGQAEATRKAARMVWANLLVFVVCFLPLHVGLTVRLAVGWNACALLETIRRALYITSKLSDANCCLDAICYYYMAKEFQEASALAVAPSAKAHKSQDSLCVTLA

[11] = target: T4, G-protein coupled receptor 55; assay: GPR55 antagonists blocking LPI-driven arrestin recruitment, primary screen, imaging, U2OS, beta-arrestin-GFP, LPI agonist (AID 2013); format: functional;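 also: antagonist potency measured as reduced agonist-driven arrestin aggregation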
Cannabinoid receptor 1 [12] = target: T6, Cannabinoid receptor 1 (Homo sapiens, UniProt P21554); assay: SAR analysis of agonists of the Cannabinoid Receptor 1 using an Image-Based Assay - Set 2. [Related pubchem assays (depositor defined):AID2013, AID2026]; format: functional
T6 sequence (P21554 whole entry): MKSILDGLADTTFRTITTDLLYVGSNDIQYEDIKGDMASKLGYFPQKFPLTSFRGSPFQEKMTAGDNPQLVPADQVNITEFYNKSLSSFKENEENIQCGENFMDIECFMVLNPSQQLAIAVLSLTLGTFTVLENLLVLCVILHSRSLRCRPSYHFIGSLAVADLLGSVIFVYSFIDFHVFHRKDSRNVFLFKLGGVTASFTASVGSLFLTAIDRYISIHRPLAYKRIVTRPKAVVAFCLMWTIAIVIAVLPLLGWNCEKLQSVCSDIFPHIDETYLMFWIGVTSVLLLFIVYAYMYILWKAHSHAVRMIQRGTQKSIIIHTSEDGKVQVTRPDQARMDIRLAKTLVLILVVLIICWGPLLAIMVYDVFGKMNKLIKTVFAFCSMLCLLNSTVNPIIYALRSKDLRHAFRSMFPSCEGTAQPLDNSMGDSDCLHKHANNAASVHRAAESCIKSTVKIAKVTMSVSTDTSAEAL

Cannabinoid receptor 1 [13] = target: T6, Cannabinoid receptor 1; assay: SAR analysis of antagonists of the Cannabinoid Receptor 1 using an Image-Based Assay - Set 2. [Related pubchem assays (depositor defined):AID2013, AID2026]; format: functional
Streptokinase A = target: T7, Streptokinase A (Streptococcus pyogenes serotype M1, UniProt P10520); assay: S. pyogenes streptokinase expression inhibitors, potency, dose response, plasminogen activation absorbance, OD405 (AID 1914); format: functional, Streptococcus pyogenes M1 GAS;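 also: secreted streptokinase activity via plasminogen activation per viability signal from cell pellet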
T7 sequence (P10520 whole entry): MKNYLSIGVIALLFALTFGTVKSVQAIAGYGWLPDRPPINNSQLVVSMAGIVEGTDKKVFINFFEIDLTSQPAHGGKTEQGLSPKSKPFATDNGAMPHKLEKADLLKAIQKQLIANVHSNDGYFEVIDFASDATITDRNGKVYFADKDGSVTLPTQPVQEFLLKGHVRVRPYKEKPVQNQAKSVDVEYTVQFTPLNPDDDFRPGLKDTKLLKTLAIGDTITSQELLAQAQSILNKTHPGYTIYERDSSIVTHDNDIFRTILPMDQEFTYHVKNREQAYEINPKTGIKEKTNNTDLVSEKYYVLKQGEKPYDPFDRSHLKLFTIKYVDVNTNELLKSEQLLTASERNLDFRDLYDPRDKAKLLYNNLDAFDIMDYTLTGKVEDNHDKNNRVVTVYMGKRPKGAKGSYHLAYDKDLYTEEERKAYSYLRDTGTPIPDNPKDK

[14] = target: T5, G-protein coupled receptor 35; assay: SAR analysis of Antagonists of the GPR35 Receptor using an Image-Based Assay - Set 3. [Related pubchem assays (depositor defined):AID2013, AID2026]; format: functional
Cannabinoid receptor 2 [15] = target: T3, Cannabinoid receptor 2; assay: SAR analysis of antagonists of the Cannabinoid Receptor 2 using an Image-Based Assay. [Related pubchem assays (depositor defined):AID2013, AID2026]; format: functional
[16] = target: T8, Kappa-type opioid receptor (Homo sapiens, UniProt P41145); assay: SAR analysis of Antagonists of the Kappa Opioid Receptor (KOR) using an Image-Based Assay - Set 4. [Related pubchem assays (depositor defined):AID1777, AID1785]; format: functional
T8 sequence (P41145 whole entry): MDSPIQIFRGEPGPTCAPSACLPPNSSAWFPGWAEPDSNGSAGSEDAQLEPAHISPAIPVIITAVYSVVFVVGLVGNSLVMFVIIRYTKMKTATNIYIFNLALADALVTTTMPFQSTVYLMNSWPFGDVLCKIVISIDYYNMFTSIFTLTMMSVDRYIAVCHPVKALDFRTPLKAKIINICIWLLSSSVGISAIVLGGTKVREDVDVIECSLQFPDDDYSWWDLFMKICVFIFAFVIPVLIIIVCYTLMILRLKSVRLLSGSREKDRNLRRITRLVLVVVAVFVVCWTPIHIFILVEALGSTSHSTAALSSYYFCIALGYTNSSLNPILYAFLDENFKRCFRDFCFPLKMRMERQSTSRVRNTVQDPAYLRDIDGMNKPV

Mu-type opioid receptor = Mu-type opioid receptor (Homo sapiens, UniProt P35372); assay: SAR Analysis of Antagonists of the MOR Receptor using an Image-Based Assay - Set 3. [Related pubchem assays (depositor defined):AID1777, AID1785, AID1786, AID1966, AID2133, AID2136, AID2284, AID2285, AID2420]; format: functional
[17] = target: Delta-type opioid receptor (Homo sapiens, UniProt P41143); assay: SAR Analysis of Antagonists of the DOR Receptor using an Image-Based Assay - Set 3. [Related pubchem assays (depositor defined):AID1777, AID1785]; format: functional;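 also: U2OS cells expressing DOR1 and beta-arrestin GFP stimulated with 100 nM SNC80; imaging of GFP-tagged beta-arrestin moving into spots after receptor activation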
[18] = target: T8, Kappa-type opioid receptor; assay: SAR analysis of small molecule agonists of the kappa opioid receptor via a luminescent beta-arrestin assay - Set 3. [Related pubchem assays (depositor defined):AID1777, AID1785, AID1786, AID1966, AID2133, AID2136, AID2284, AID2500]; format: functional
[19] = target: T9, Tyrosine-protein phosphatase non-receptor type 22 (Homo sapiens, UniProt Q9Y2R2); assay: SAR LYP1 Fluorescent Assay using OMFP substrate for In Vitro dose response studies - Set 3. [Related pubchem assays (depositor defined):AID1779, AID1784, AID2140, AID2686]; format: functional
T9 sequence (Q9Y2R2 whole entry): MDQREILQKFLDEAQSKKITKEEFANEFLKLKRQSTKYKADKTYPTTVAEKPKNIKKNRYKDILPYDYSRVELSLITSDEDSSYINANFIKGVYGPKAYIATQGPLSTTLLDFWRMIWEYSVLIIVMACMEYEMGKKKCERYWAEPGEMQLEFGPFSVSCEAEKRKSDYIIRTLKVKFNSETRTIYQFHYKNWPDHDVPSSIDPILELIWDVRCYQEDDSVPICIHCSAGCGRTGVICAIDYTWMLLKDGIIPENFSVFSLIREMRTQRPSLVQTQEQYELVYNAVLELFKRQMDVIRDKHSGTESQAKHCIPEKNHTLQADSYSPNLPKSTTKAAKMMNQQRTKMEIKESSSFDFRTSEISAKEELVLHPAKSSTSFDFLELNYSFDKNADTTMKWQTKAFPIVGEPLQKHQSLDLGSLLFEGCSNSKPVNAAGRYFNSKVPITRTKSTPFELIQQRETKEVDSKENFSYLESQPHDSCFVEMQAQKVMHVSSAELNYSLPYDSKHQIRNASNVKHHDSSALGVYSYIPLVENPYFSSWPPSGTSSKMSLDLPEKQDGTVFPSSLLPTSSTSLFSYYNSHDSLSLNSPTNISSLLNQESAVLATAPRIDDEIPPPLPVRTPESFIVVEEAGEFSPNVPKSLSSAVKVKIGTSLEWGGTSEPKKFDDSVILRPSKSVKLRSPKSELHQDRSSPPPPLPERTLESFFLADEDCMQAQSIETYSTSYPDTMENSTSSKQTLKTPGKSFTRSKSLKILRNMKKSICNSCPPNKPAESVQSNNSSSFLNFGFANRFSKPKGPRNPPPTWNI

[20] = target: T9, Tyrosine-protein phosphatase non-receptor type 22; assay: SAR LYP1 Fluorescent Assay using OMFP substrate for In Vitro dose response studies - Set 2. [Related pubchem assays (depositor defined):AID1779, AID1784, AID2140, AID449726, AID488869]; format: functional
[21] = target: T9, Tyrosine-protein phosphatase non-receptor type 22; assay: LYP (PTPN22) phosphatase inhibitor potency, SAR follow-up, biochemical, pCAP fluorogenic substrate, fluorescence, set 3 (AID 449727); format: functional
[22] = target: T9, Tyrosine-protein phosphatase non-receptor type 22; assay: SAR LYP1 Fluorescent Assay using pCAP substrate for In Vitro dose response studies - Set 2. [Related pubchem assays (depositor defined):AID1779, AID1784, AID2135, AID449727]; format: functional
[23] = target: T10, Tyrosine-protein phosphatase non-receptor type 7 (Homo sapiens, UniProt P35236); assay: HePTP (PTPN7) phosphatase inhibitor potency, SAR follow-up, biochemical, set 2 (AID 449736); format: functional
T10 sequence (P35236 whole entry): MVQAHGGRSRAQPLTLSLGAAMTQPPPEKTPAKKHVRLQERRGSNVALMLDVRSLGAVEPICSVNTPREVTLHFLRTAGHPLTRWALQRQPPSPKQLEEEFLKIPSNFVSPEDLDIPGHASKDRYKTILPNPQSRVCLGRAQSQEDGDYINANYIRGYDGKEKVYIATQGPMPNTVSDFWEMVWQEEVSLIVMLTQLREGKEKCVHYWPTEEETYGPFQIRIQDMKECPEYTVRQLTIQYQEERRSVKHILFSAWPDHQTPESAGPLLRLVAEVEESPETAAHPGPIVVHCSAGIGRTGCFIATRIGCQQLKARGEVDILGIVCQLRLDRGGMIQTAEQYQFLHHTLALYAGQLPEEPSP

[24] = target: Tyrosine-protein phosphatase non-receptor type 12 (Homo sapiens, UniProt Q05209); assay: SAR Selectivity Analysis of small molecule inhibitors of PEST using pCAP in a fluorescence assay. [Related pubchem assays (depositor defined):AID1779, AID1784, AID2135]; format: functional

O=C(O)CC(CCc1ccccc1)OC1OC(CO)C(O)C(O)C1O (stereo not given)
active: AC50 (Caspase-6) 0.283 µM | IC50 [1] 69.4 µM | IC50 [2] 1.61 µM | EC50 [3] 57.6 µM | AC50 (Caspase-7) 30.9 µM | EC50 [5] 33.7 µM | IC50 (Large T antigen) 57.6 µM | EC50 [6] 59.2 µM | IC50 [7] 23.6 µM
inactive: IC50 [4] 50.2 µM | IC50 (Albumin) > 94.1 µM

COc1ccc(NS(=O)(=O)c2ccc3nc(COc4cccc5ccccc45)[nH]c3c2)cc1
active: IC50 [9] 1.45 µM | IC50 [11] 1.76 µM | IC50 (Cannabinoid receptor 1 [13]) 2.24 µM | EC50 (Streptokinase A) 6.16 µM
inactive: EC50 (Cannabinoid receptor 2 [8]) > 32 µM | EC50 [10] > 32 µM | EC50 (Cannabinoid receptor 1 [12]) > 32 µM | IC50 [14] > 32 µM | IC50 (Cannabinoid receptor 2 [15]) > 32 µM

CC(C)OC(=O)C1(N(Cc2ccco2)C(=O)c2ccccn2)CCCCC1
inactive: IC50 [16] > 32 µM | IC50 (Mu-type opioid receptor) 15 µM | IC50 [17] > 32 µM | EC50 [18] > 20 µM

O=C(O)COc1ccccc1/C=N/NC(=O)c1ccc(-c2csc(Nc3ccc(Cl)cc3)n2)cc1
active: IC50 [19] 1.29 µM | IC50 [20] 5.67 µM | IC50 [21] 3.5 µM | IC50 [22] 4.1 µM | IC50 [23] 0.841 µM | IC50 [24] 1.49 µM
